What was measured:
[1] = test system: Bacillus subtilis ATCC 6633; experiment: MIC, broth microdilution (direct antibacterial activity); type: cell-based; conditions: ATCC6633, B. subtilis ATCC 6633, compound alone, 18-24 h, read-out: MIC
Protocol: (§1) Growth inhibition or killing of bacteria was investigated using conventional methods widely described in the scientific literature. Parameters such as the Minimum Inhibitory Concentration (MIC) were determined as described in Clinical Laboratory Standard Institute (CLSI) document M07 “Methods for Dilution Antimicrobial Susceptibility Tests for Bacteria That Grow Aerobically, 11th Edition” (2018). Synergistic activity of the compounds described in the present specification were determined by measuring the variation of the MIC's compound in the absence and presence of a sub-inhibitory concentration of a suitable antibacterial agent, such as polymyxin E1. Furthermore, the Fractional Inhibitory Concentrations (FICs) were measured using a chequerboard analysis to determine the average FIC index (FICI), whose value is known to characterize the interaction between two compounds and/or drugs (≤0.5, synergistic interaction; >0.5 and <2, no interaction, additive effect; ≥2, antagonistic interaction). Furthermore, the selectivity of the compounds was investigated by measuring their cytotoxic effect on mammalian cell lines (e.g. HeLa cells).
(§2) The MIC values were determined using the broth microdilution method as described in document M07 using Mueller-Hinton broth as culture medium and an initial bacterial inoculum size of 5×10^5 CFU/mL, with a final volume of 100 μL per well in a 96-well microplate. Bacterial strains were Bacillus subtilis ATCC 6633, Enterococcus faecalis ATCC 29212, Streptococcus pyogenes ATCC 12344 and Staphylococcus aureus ATCC 25923. The tested compound concentration ranged from 512 to 0.25 mg/L. Plates were incubated for 18-24 hours at 35±2° C. prior to results analysis.

[2] = test system: Enterococcus faecalis ATCC 29212; experiment: as above; type: cell-based; conditions: ATCC29212, E. faecalis ATCC 29212, compound alone, 18-24 h, read-out: MIC
Protocol: as §1, §2

[3] = test system: Staphylococcus aureus ATCC 25923; experiment: as above; type: cell-based; conditions: ATCC25923, S. aureus ATCC 25923, compound alone, 18-24 h, read-out: MIC
Protocol: as §1, §2

[4] = test system: Streptococcus pyogenes ATCC 12344; experiment: as above; type: cell-based; conditions: ATCC12344, S. pyogenes ATCC 12344, compound alone, 18-24 h, read-out: MIC
Protocol: as §1, §2

[5] = test system: Klebsiella pneumoniae ATCC 13833; experiment: microbe, parasite or virus in culture; type: cell-based; conditions: K. pneumoniae ATCC 13833
Procedure, shortened: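 MICs were determined by CLSI M07 broth dilution, for each compound alone and with a fixed sub-inhibitory concentration of polymyxin E1 (colistin). Potentiation fold is the MIC alone divided by the MIC with polymyxin E.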

E. coli CCUG^T = experiment: Chequerboard analysis with polymyxin E1 (average FIC index); type: cell-based, Escherichia coli; conditions: compound + polymyxin E1
K. pneumoniae ATCC 13833 = experiment: as above; type: cell-based, Klebsiella pneumoniae; conditions: compound + polymyxin E1
[6] = test system: polymyxin E1-resistant Acinetobacter baumannii (strain N50) clinical isolate; type: cell-based; conditions: A. baumannii N50 (colistin-resistant); compound + polymyxin E1
Protocol: as §1
“Chequerboard” method was used to further investigate the synergistic activity of pyrazolo[4,3-b]pyridin-6-carboxamides when this compounds are combined with polymyxin E1. […]

in vitro = type: cell-based; conditions: human
Protocol: as §1
The selectivity and potential cytotoxic effect of antibacterial compounds is a key aspect of such drugs. […]

Which MIC [1] does the source give for CCCCn1c(=O)c(C(=O)NC23CC4CC(CC(C4)C2)C3)c(O)c2nn(C)cc21 [Ib, N-(Adamantan-1-yl)-4-(1-butyl)-4,5-dihydro-7-hydroxy-2-methyl-5-oxo-2H-pyrazolo[4,3-b]pyridin-6-carboxamide] here?
Its MIC is 32 µg/mL.

What about the MIC [2] of the same compound?
The MIC was 64 µg/mL.

What about the MIC [3] of the same compound?
The MIC was 64 µg/mL.

And the MIC [4]?
Its MIC is 16 µg/mL.

And the Potentiation fold ([5]; ratio MICcompound/MICcompound+polymyxin E)?
Its Potentiation fold is no less than 64.

And the “MIC in presence of colistin” value ([5]; with 0.25xMIC polymyxin E1 (0.12 mg/L))?
Its value is 8 µg/mL.

What about the MIC ([5]; Klebsiella pneumoniae, ATCC13833, compound alone, read-out: MIC) of the same compound?
The MIC was greater than 512 µg/mL.

And the “Average FIC index” value (E. coli CCUG^T)?
Its value is 0.26.

And the “Average FIC index” value (K. pneumoniae ATCC 13833)?
Its value is 0.30.

And the “Average FIC index” value [6]?
Its value is 0.30.

What about the IC50 at 24 h (in vitro) of the same compound?
The IC50 at 24 h was greater than 256 µg/mL.

From patent US12358919B2, “Antibacterial compounds” (Universita' degli Studi di Siena, priority 2019, dated 2025)
